The subject of this experiment is P388 leukemia ip, CD2F1 mice, survival T/C. The experiment can be described thus: NCI In Vivo Anticancer Drug Screen. Data for tumor model P388 Leukemia (intraperitoneal) in CD2F1 (CDF1) mice. The conditions noted are these: endpoint: median survival time, higher = longer survival. Put shortly:
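Mice carrying the transplanted tumor received test compound or vehicle. Survival was recorded in each group, and the value is the treated-group measurement divided by that of the vehicle-treated control group.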

Setting [1] is: dose: 50.0 mg/kg/injection, schedule: Q01DX005 (ip), vehicle: Klucel (hydroxypropylcellulose) (HPC).
Where [2] appears, read: dose: 100.0 mg/kg/injection, schedule: Q01DX005 (ip), vehicle: Klucel (hydroxypropylcellulose) (HPC).
Where [3] appears, read: dose: 200.0 mg/kg/injection, schedule: Q01DX005 (ip), vehicle: Klucel (hydroxypropylcellulose) (HPC).
The mark [4] stands for this setting: dose: 50.0 mg/kg/injection, schedule: Q01DX009 (ip), vehicle: Klucel (hydroxypropylcellulose) (HPC).
The mark [5] stands for this setting: dose: 100.0 mg/kg/injection, schedule: Q01DX009 (ip), vehicle: Klucel (hydroxypropylcellulose) (HPC).
Where [6] appears, read: dose: 60.0 mg/kg/injection, schedule: Q01DX005 (ip), vehicle: saline with Tween-80.
[7] abbreviates: dose: 120.0 mg/kg/injection, schedule: Q01DX005 (ip), vehicle: saline with Tween-80.

Values joined by “and” are separate entries in the source; they are usually repeats but may differ in a detail not shown here. Identical values can stand only once. Toxic doses and inconclusive results are not listed.

These results are taken from PubChem BioAssay AID330 (DTP/NCI, 2004).

On to `CC(C)(C)N1OC1c1ccccc1` (configuration not stated), for which the T/C reads like this: (dose: 25.0 mg/kg/injection, schedule: Q04DX003 (ip), vehicle: saline with Tween-80) 108 % of control; (dose: 50.0 mg/kg/injection, schedule: Q04DX003 (ip), vehicle: saline with Tween-80) 105 % of control; (dose: 100.0 mg/kg/injection, schedule: Q04DX003 (ip), vehicle: saline with Tween-80) 108 % of control; (dose: 200.0 mg/kg/injection, schedule: Q04DX003 (ip), vehicle: saline with Tween-80) 108 % of control.
For the compound `NC(N)=NCCCC(N)C(=O)CC(Cc1ccc(O)cc1)C(=O)O` (configuration not stated), the T/C reads like this: (dose: 7.5 mg/kg/injection, schedule: Q01DX005 (ip), vehicle: water) 98 % of control; (dose: 15.0 mg/kg/injection, schedule: Q01DX005 (ip), vehicle: water) 98 % of control; (dose: 30.0 mg/kg/injection, schedule: Q01DX005 (ip), vehicle: water) 95 % of control; (dose: 60.0 mg/kg/injection, schedule: Q01DX005 (ip), vehicle: water) 98 % of control.
For `COC(=O)c1c(/C(=N/Nc2ccc([N+](=O)[O-])cc2)[N+](=O)[O-])ssc1=N`, the T/C by setting is: under setting [1], 103 % of control; under setting [2], 97 % of control; under setting [3], 103 % of control.
`O=P(c1ccccc1)(c1ccccc1)C(O)c1ccncc1` (configuration not stated): the T/C under setting [4] was 102 % of control; the T/C under setting [5] is 103 % of control; the T/C (dose: 200.0 mg/kg/injection, schedule: Q01DX009 (ip), vehicle: Klucel (hydroxypropylcellulose) (HPC)) was 103 % of control.
In the case of `CC1(C)Cc2c([nH]c3ccccc3c2=O)-c2ccccc21`, the T/C was 96 % of control under setting [1], 100 % of control under setting [2] and 103 % of control under setting [3].
`Brc1nn[nH]n1`: the T/C by setting is: under setting [4], 101 % of control; under setting [5], 90 % of control.
With `C(=N\NC1=NCCN1)/c1ccncc1`, the T/C runs as follows: (dose: 50.0 mg/kg/injection, schedule: Q01DX005 (ip), vehicle: saline) 100 % of control; (dose: 100.0 mg/kg/injection, schedule: Q01DX005 (ip), vehicle: saline) 94 % of control.
For the compound `OCC1OC(n2cnc3c(NO)nc(NO)nc32)C(O)C1O` (configuration not stated), the T/C is, setting by setting: (dose: 2.25 mg/kg/injection, schedule: Q01DX009 (ip), vehicle: saline) 100 % of control; (dose: 4.5 mg/kg/injection, schedule: Q01DX009 (ip), vehicle: saline) 114 % of control; (dose: 14.3 mg/kg/injection, schedule: Q01DX009 (ip), vehicle: saline) 107 % of control; (dose: 18.0 mg/kg/injection, schedule: Q01DX009 (ip), vehicle: saline) 114 % of control; (dose: 54.0 mg/kg/injection, schedule: Q01DX009 (ip), vehicle: saline) 184 % of control.
For the compound `O=C(NO)c1cc(O)c(O)c(O)c1`, the T/C was 121 % of control (dose: 50.0 mg/kg/injection, schedule: Q01DX005 (ip), vehicle: distilled water + Tween-80); 168 % of control (dose: 100.0 mg/kg/injection, schedule: Q01DX009 (ip), vehicle: distilled water + Tween-80); 155 % of control (dose: 200.0 mg/kg/injection, schedule: Q01DX005 (ip), vehicle: distilled water + Tween-80); 197 % of control (dose: 200.0 mg/kg/injection, schedule: Q01DX009 (ip), vehicle: distilled water + Tween-80).
Take `Cc1nc2ccccc2c(=O)n1NC(=S)Nc1ccc(Cl)cc1`: the T/C is 90 % of control (dose: 100.0 mg/kg/injection, schedule: Q04DX002 (ip), vehicle: saline with Tween-80); 88 % of control (dose: 200.0 mg/kg/injection, schedule: Q04DX002 (ip), vehicle: saline with Tween-80); 90 % of control (dose: 400.0 mg/kg/injection, schedule: Q04DX002 (ip), vehicle: saline with Tween-80).
Take `Cc1ccc(S(=O)(=O)c2cc3ccccc3oc2=O)cc1`: the T/C runs as follows: under setting [6], 91 % of control; under setting [7], 88 % of control.
With `C=C1C(=O)OC2/C=C(\COC(C)=O)CCC(OC(C)=O)C3=CC(OC3=O)C12` (configuration not stated), the T/C is 95 % of control (dose: 1.87 mg/kg/injection, schedule: Q01DX009 (ip), vehicle: Klucel (hydroxypropylcellulose) (HPC)); 102 % of control (dose: 3.75 mg/kg/injection, schedule: Q01DX009 (ip), vehicle: Klucel (hydroxypropylcellulose) (HPC)); 96 % of control (dose: 7.5 mg/kg/injection, schedule: Q01DX009 (ip), vehicle: Klucel (hydroxypropylcellulose) (HPC)); 117 % of control (dose: 15.0 mg/kg/injection, schedule: Q01DX009 (ip), vehicle: Klucel (hydroxypropylcellulose) (HPC)).
In the case of `CCCCCCCCCCCCCCCCCC[N+]1(CC)CCSCC1`, the T/C was 97 % of control (dose: 25.0 mg/kg/injection, schedule: Q01DX001 (ip), vehicle: saline with Tween-80); 98 % of control (dose: 50.0 mg/kg/injection, schedule: Q01DX001 (ip), vehicle: saline with Tween-80); 94 % of control (dose: 100.0 mg/kg/injection, schedule: Q01DX001 (ip), vehicle: saline with Tween-80); 86 % of control (dose: 400.0 mg/kg/injection, schedule: Q01DX001 (ip), vehicle: saline with Tween-80).
As for `COC(=O)c1cc2nc(C(C)C)n(Cc3ccccc3)c2cc1C(=O)OC`, the T/C reads like this: under setting [6], 92 % of control; under setting [7], 92 % of control; (dose: 240.0 mg/kg/injection, schedule: Q01DX005 (ip), vehicle: saline with Tween-80) 90 % of control.
Regarding `[Se]=[Nb]=[Se]`, the T/C runs as follows: (dose: 60.0 mg/kg/injection, schedule: Q01DX005 (ip), vehicle: acid diluted with saline) 89 % of control; (dose: 120.0 mg/kg/injection, schedule: Q01DX005 (ip), vehicle: acid diluted with saline) 93 % of control; (dose: 240.0 mg/kg/injection, schedule: Q01DX005 (ip), vehicle: acid diluted with saline) 90 % of control.
Consider `O=NNc1cnc(-c2ccccc2)c(-c2ccccc2)n1`, for which the T/C (dose: 3.12 mg/kg/injection, schedule: Q01DX009 (ip), vehicle: water) was 103 % of control; the T/C (dose: 6.25 mg/kg/injection, schedule: Q01DX009 (ip), vehicle: water) is 104 % of control; the T/C (dose: 12.5 mg/kg/injection, schedule: Q01DX009 (ip), vehicle: water) was 105 % of control and 111 % of control; the T/C (dose: 25.0 mg/kg/injection, schedule: Q01DX009 (ip), vehicle: water) was 116 % of control and 117 % of control; the T/C (dose: 100.0 mg/kg/injection, schedule: Q01DX009 (ip), vehicle: water) is 96 % of control.
For `NC(=S)n1nc(-c2ccccc2)c(N=Nc2ccc(O)cc2)c1-c1ccccc1`, the T/C is 100 % of control (dose: 50.0 mg/kg/injection, schedule: Q01DX005 (ip), vehicle: saline with Tween-80); 103 % of control (dose: 100.0 mg/kg/injection, schedule: Q01DX005 (ip), vehicle: saline with Tween-80); 98 % of control (dose: 200.0 mg/kg/injection, schedule: Q01DX005 (ip), vehicle: saline with Tween-80).
Take `Nc1ncnc2c1ccn2COCCOP(=O)(O)O`: the T/C was 105 % of control (dose: 50.0 mg/kg/injection, schedule: Q01DX005 (ip), vehicle: distilled water + alcohol); 100 % of control (dose: 100.0 mg/kg/injection, schedule: Q01DX005 (ip), vehicle: distilled water + alcohol); 98 % of control (dose: 200.0 mg/kg/injection, schedule: Q01DX005 (ip), vehicle: distilled water + alcohol).
`CCN1C(=O)CSC1=S`: the T/C reads like this: (dose: 6.25 mg/kg/injection, schedule: Q04DX002 (ip), vehicle: Klucel (hydroxypropylcellulose) (HPC)) 112 % of control; (dose: 12.5 mg/kg/injection, schedule: Q04DX002 (ip), vehicle: Klucel (hydroxypropylcellulose) (HPC)) 110 % of control; (dose: 25.0 mg/kg/injection, schedule: Q04DX002 (ip), vehicle: Klucel (hydroxypropylcellulose) (HPC)) 105 % of control; (dose: 50.0 mg/kg/injection, schedule: Q04DX002 (ip), vehicle: Klucel (hydroxypropylcellulose) (HPC)) 109 % of control.
`Cc1ccc(S(=O)CC(O)CO)cc1` (configuration not stated): the T/C is 95 % of control (dose: 50.0 mg/kg/injection, schedule: Q01DX009 (ip), vehicle: saline); 101 % of control (dose: 100.0 mg/kg/injection, schedule: Q01DX009 (ip), vehicle: saline); 108 % of control (dose: 200.0 mg/kg/injection, schedule: Q01DX009 (ip), vehicle: saline).
